Several values for one entry are separate records, joined by “and”; a condition that tells them apart may be missing. Equal entries are not always repeated. Entries after “also recorded” stand apart in the source; their conditions may differ. Where two headings read alike, the source gives them in different places.
Experiments:
effects of ethanol = conditions: cited from earlier work
ethanol-induced narcosis = format: in vivo, male CD1 mice
From the text: It is known that administration of ethanol to mice induces a state of narcosis in the animals. […] It is also known that certain compounds can modify the narcotic effect of ethanol in this model.
Animals: Male CD1 mice (Charles-River Co., Portage, Mich.) weighing 25-30 g were used in the experiments. Upon arrival they were caged in groups of 14 and allowed to acclimatize to laboratory conditions for one week before the beginning of the studies. They were fed standard rodent diet with food and water ad libitum.
Duration of sleep time: Mice received intraperitoneal (i.p.) injections of ethanol and either saline or one of the drug treatments. Upon loss of the righting reflex, a timer was started to record the duration of the sleep time until the reflex was recovered. Two types of experiments were conducted to study the effect of drugs before (pre-treatment) or after (post-treatment) the injection of the narcotic dose of ethanol. In the pre-treatment experiments the drugs were injected i.p., 15 minutes before ethanol. In the post-treatment experiments the drugs were administered i.p., 1 minute after the animals lost the righting reflex, which was approximately 5 minutes after administration of ethanol.
Drugs: Ethanol was prepared as a 20% v/v (16% w/v) solution in saline. Based on previous studies, a dose of 87 mmol/kg (4 g/kg) was selected as the narcotic dose. RO 15-4513, the benzodiazepine receptor inverse agonist discussed in the Background section, was purchased from RBI (Natick, Mass.). It was dissolved in saline solution with Tween-80 and ultrasonically homogenized for 3 minutes. […] The compounds of Examples 2 and 4, both novel neuronal nicotinic receptor ligands according to the present invention, were also dissolved in saline to the desired concentrations.

[1] = in vivo; cited from earlier work
[2] = system: time spent in the open arms (anxiolytic activity); test: Mouse elevated plus-maze; format: in vivo, CD1 mice; conditions: i.p., p<0.05; for Elevated Plus-Maze (EPM) result: time in open arms
From the text: (§1) The mouse elevated plus-maze is a commonly-used conflict test that probes anxiolytic activity of test compounds (Lister, Psychopharmacology, 1987, 92 180). It is based on the fact that exposure of mice to an elevated open arm leads to an avoidance response considerably stronger than that evoked by exposure to an enclosed arm.
The apparatus required to perform this test is made of plywood and consists of two open arms (17×8 cm) and two enclosed arms (17×8×15 cm) extending from a central platform (8×8 cm). It is mounted on a plywood base rising 39 cm above the floor. Mice are released on the central platform and the time spent in the open and enclosed arms is recorded during a 5 minute test period.
The compound of Example 2 (0.0108-1.08 μmol/kg, i.p.) was administered to CD1 mice (n=12 per group) 15 minutes before the test.

[3] = system: neuronal nicotinic cholinergic channels in PC12 cells; test: Cholinergic channel activator action in PC12 cells, whole-cell patch-clamp; format: cell-based, rat; conditions: PC12 cells; mean ± S.E.M.
Method: Electrophysiologic recordings were obtained from differentiated (neurite-bearing) cells after 4-7 days exposure to NGF. […] After 20 minutes, differentiating medium was added (DMEM containing 100 ng/ml nerve growth factor, 5% heat-inactivated fetal calf serum and 2.5% heat-inactivated horse serum) and the cells were refed with this medium every 3 days.
The intracellular (recording pipette) solution consisted of 140 mM KCl, 1.0 mM CaCl2, 2.0 mM MgCl2, 11 mM K-EGTA, and 10 mM K-HEPES buffer (7.3 pH, 315 mOsm). Osmolarities were adjusted using dextrose such that the extracellular solution was 10 mOsm hypertonic compared to the intracellular solution. Voltage-gated inward (sodium) and outward (potassium) currents were monitored throughout the experiment to determine establishment and maintenance of the whole-cell recording configuration.

[4] = system: retention of the avoidance response; test: Inhibitory avoidance test; format: in vivo; conditions: i.p. 15 min before training, retention at 24 h, p<0.05
From the text: The inhibitory (or sometimes called passive) avoidance (IA) test is a well-accepted animal model for learning/memory and is widely used to assess the activity of novel cognition enhancers in enhancing cognitive function (Wanibuchi et al., Eur. J. Pharmacol., 1990, 187:479). According to this test, animals are placed in the illuminated (12×14×11 cm) portion of a two-chambered box, from which they enter through a guillotine door to the larger (24×13.5×12 cm) dark compartment of the box. Entry to the dark compartment is accompanied by a mild (0.35 mA), brief (2 seconds) footshock. Initial latencies to cross are recorded, with an imposed 60 second ceiling. Following a 24 hour retention interval, animals are returned to the illuminated chamber, and latency to return to the dark compartment is again recorded, with a ceiling of 180 seconds. No footshock is administered on the test day.
Twelve animals were used in each group.

1-4 Hz slow wave EEG = 1-4 Hz slow wave EEG amplitude; format: in vivo, male Wistar rats
[5] = system: anxiety induced by (-)-nicotine withdrawal; test: Elevated plus-maze 48 hours after withdrawal of 14-day chronic (-)-nicotine; format: in vivo, rats
From the text: as §1, with “a” for “a commonly-used”, “92:180).” for “92 180).”, “arm. Compounds may be tested for their ability to modify the avoidance response of the animal to the open arm maze. […] The effect of such potential anti-anxiety drugs may be tested further in a withdrawal challenge test.” for “arm.”
Elevated Plus-Maze: The procedure originally described by Pellow et al., for rats was used, with minor modifications (Pellow et al., J. Neurosci. Meth., 14: 149, 1985). The apparatus consisted of two open arms (50×10 cm) and two enclosed arms (50×10×40 cm) extending from a central platform (10×10 cm). It was mounted on a base raising 50 cm above the floor. Light levels on the open and enclosed arms were similar. The animals were placed in the center of the maze and the time spent in the open arms and the total distance traveled by the rat were recorded automatically by a camera mounted above the apparatus, then analyzed by computer (Videomex™ software, Columbus Instruments, Columbus, Ohio). All animals used were naive to the apparatus. Animals were injected i.p. with saline or the different drug doses, and submitted to the test 30 minutes later. The test lasted 5 minutes, and the apparatus was thoroughly cleaned after removal of the animal.
The pumps were removed on day 14 and the animals were tested in the plus-maze 48 hours later, at the time when a state of withdrawal-induced anxiety was present in the rats. On the test day i.p. doses of either saline or the compound of Example 2 were administered to the animals 30 minutes before the test. Data (Table 13) represent the mean ±SEM time spent in the open arms of the plus-maze of 8-16 rats.

spike wave discharges = test: Attenuation of petit mal absence-like spike wave discharges (EEG); format: in vivo, male Wistar rats; conditions: i.p.; 20 min waking immobility; p<0.05 where significant
Method: Animals: Male albino rats of the Wistar strain (CAMM Research) were maintained on a 12:12 hour light-dark cycle and individually housed throughout these experiments. They were fed standard rodent diet with food and water provided ad libitum.
EEG Recordings: To record spike wave discharges, rats were surgically implanted with permanently affixed EEG electrodes over the frontal codex using previously described techniques (Radek, Brain Res., 1993, in press). After at least a ten day recovery from this surgery, EEG recordings were made inside darkened sound attenuating chambers. Rats were allowed to move freely within the chambers and computerized activity monitors recorded animal motion during these studies. Only those rats that express spike wave discharges, as identified from preliminary recordings, were used to test the effects of nicotinic agents.
Drug studies: EEG recordings were obtained from each rat for a period of 20 minutes of total waking immobility immediately after administration of drug, or a drug-free control solution. Immobility was characterized as the absence of infrared beam interruptions from the activity monitor system. Spike wave activity was identified as regular 6-10 Hz complexes with amplitudes of 0.4 to 1.0 mV. The total spindling duration for 20 minutes of waking immobility was calculated by determining the length (in seconds) of each spike wave burst, and adding each of these times together to obtain a total spindle time for the recording session. Each rat was administered the control solution and one or two doses of the test compounds and each dosing was given at least 48 hours after the previous treatment.
The compound of Example 2 was dissolved in saline to the desired concentration.

[6] = target: neuronal nicotinic receptors; test: Displacement of [3H]-MCC or [3H]-cytisine from neuronal nicotinic receptors, whole rat brain membranes; format: binding; conditions: Table 1; oxalate salt; read-out: Nicotinic Receptor Ki
Method: Binding of [^3 H]-methylcarbamylcholine ([^3 H]-MCC) or [^3 H]-cytisine ([^3 H]-CYT) to nicotinic receptors was accomplished using crude synaptic membrane preparations from whole rat brain (Snyder and Enna, Brain Research, 1975, 100:81). Washed membranes were stored at -80° C. prior to use. Frozen aliquots were slowly thawed and resuspended in 20 volumes of buffer (containing: 120 mM NaCl, 5 mM KCl, 2 mM MgCl2, 2 mM CaCl2 and 50 mM Tris-Cl, pH 7.4 @4° C). After centrifuging at 20,000 X g for 15 minutes, the pellets were resuspended in 30 volumes of buffer. Homogenate (containing 125-150 μg protein) was added to triplicate tubes containing concentrations of test compound and [^3 H]-MCC (3 nM) in a final volume of 500 μL. Samples were incubated for 60 minutes at 4° C., then rapidly filtered through Whatman GF/B filters presoaked in 0.5% polyethylimine using 3×4 mL of ice-cold buffer. Alternately, homogenate and test compound were incubated for 75 min with [^3 H]-CYT (1.3 nM), then rapidly filtered, as described above. The filters are counted in 4 mL of Ecolume® (ICN). […] IC50 values were determined with the ALLFIT nonlinear least squares curve-fitting program and IC50 values were converted to Ki values using the Cheng and Prusoff correction (Ki =IC50 /(1+[ligand]/Kd of ligand)). Alternately, data were expressed as a percentage of the total specific binding.

[7] = system: cholinergic receptors located in the heart and in cortical tissues; conditions: cited from earlier work
[8] = post-treatment, i.p., p<0.05, one-tailed t test

CCOC(=O)c1ncn2c1CN(C)C(=O)c1cc(N=[N+]=[N-])ccc1-2 [RO 15-4513]
antagonism of the effects of ethanol (effects of ethanol; rats): selectively antagonize the effects of ethanol in rats | Sleeping time (ethanol-induced narcosis; post-treatment, 1 μmol/kg i.p.): 84 ± 14 % of controls | Sleeping time (ethanol-induced narcosis; post-treatment, 3 μmol/kg i.p., statistically significant): 165 ± 22 % of controls | Sleeping time (ethanol-induced narcosis; post-treatment, 10 μmol/kg i.p.): 118 ± 13 % of controls | Sleeping time (ethanol-induced narcosis; post-treatment, 30 μmol/kg i.p.): 73 ± 11 % of controls | effect of post-treatment on ethanol-induced narcosis (ethanol-induced narcosis; [8]): significantly prolonged the narcotic effect of ethanol; also recorded: adversely potentiated the narcotic effect | Sleeping time (ethanol-induced narcosis; pre-treatment, 1 μmol/kg i.p.): 101 ± 9 % of controls | Sleeping time (ethanol-induced narcosis; pre-treatment, 3 μmol/kg i.p.): 107 ± 19 % of controls | Sleeping time (ethanol-induced narcosis; pre-treatment, 10 μmol/kg i.p.): 79 ± 6 % of controls | Sleeping time (ethanol-induced narcosis; pre-treatment, 30 μmol/kg i.p., statistically significant): 57 ± 14 % of controls | effect of pre-treatment on ethanol sleeping time (ethanol-induced narcosis; pre-treatment, i.p., p<0.05, one-tailed t test): significantly reduced the sleeping time of ethanol in mice

C[N+](C)(C)CCOC(N)=O [carbachol]
CNS penetration [1]: poor CNS penetration

CN1CCCC1c1cccnc1 (single isomer, unassigned; (-)) [(-)-Nicotine]
Elevated Plus-Maze (EPM) doses with significant effect [2]: 0.62 to 1.9 µmol/kg | Elevated Plus-Maze (EPM) result [2]: significant increase in the time spent by the mice in the open arms | Elevated Plus-Maze (EPM) result ([2]; listed as (-)-nicotine): significant | EC50 [3]: 52 ± 4 µM | Inhibitory Avoidance (IA) result [4]: dose-dependent facilitation of retention of the avoidance response | Inhibitory Avoidance (IA) result ([4]; listed as (-)-nicotine): significant | effect on motor incoordination due to ethanol (effects of ethanol; administered directly into the brain, ethanol i.p.): significantly attenuate the motor incoordination due to the effects of ethanol | 1-4 Hz amplitude (1-4 Hz slow wave EEG; 1.9 μmol/kg i.p.): 13.2 ± 2.0 μVolts | effect on low frequency (1-4 Hz) EEG slow-wave patterns (1-4 Hz slow wave EEG; i.p.): significant (p<0.05, 2-way ANOVA, Fisher post hoc analysis) attenuation | effect on time spent in the open arms ([5]; 48 h after withdrawal of chronic (-)-nicotine): significant reduction in the time spent in the open arms | TIME OPEN ARMS ([5]; 14 days chronic 10 mg/kg/day then withdrawal, saline challenge, *p < 0.05 against chronic saline, mean ± SEM): 35.1 ± 6.0 s | effect on incidence of spike wave discharges (spike wave discharges): significantly lowered the incidence of spike wave discharges | effect of pre-treatment on ethanol sleeping time (ethanol-induced narcosis; mouse, in vivo): significantly reduced the sleeping time of ethanol in mice | Sleeping time (ethanol-induced narcosis; mouse, in vivo, ip): 121 ± 18 % of controls and 149 ± 28 % of controls and 164 ± 32 % of controls and 232 ± 29 % of controls | effect of post-treatment on ethanol-induced narcosis (ethanol-induced narcosis; mouse, in vivo, ip): significantly prolonged the narcotic effect of ethanol; also recorded: adversely potentiated the narcotic effect

CCc1cc([C@@H]2CCCN2C)on1.O=C(O)C(=O)O [Example 4, 3-Ethyl-5-(1-methyl-2(S)-pyrrolidinyl)-isoxazole oxalate salt]
Sleeping time (ethanol-induced narcosis; post-treatment, 0.062 μmol/kg i.p.): 73 ± 12 % of controls | Sleeping time (ethanol-induced narcosis; post-treatment, 0.19 μmol/kg i.p.): 61 ± 7 % of controls | Sleeping time (ethanol-induced narcosis; post-treatment, 0.62 μmol/kg i.p.): 59 ± 8 % of controls | effect of post-treatment on ethanol-induced narcosis (ethanol-induced narcosis; [8]): significantly reduced | Ki [6]: 0.009 µM

CCN1C(=O)CC2(CCN(C)CC2)C1=O [RS-86]
agonism at cardiac receptors ([7]; cardiac): full agonist | agonism at cortical receptors ([7]; cortical): partial agonist

Reference: US5409946A, “Isoxazole, isothiazole and pyrazole compounds that enhance cognitive function” (Abbott Laboratories, priority 1993, dated 1995)
